Molecules are shown by their SMILES.

This assay relates to SMA mice. As to the kind of experiment: Open-field test (spontaneous displacement capacities). Format: in vivo, mouse. On the procedure: Phenotypic analyses of type 2 severe SMA mice treated or not starting from P0 with BIO101 were conducted. Longitudinally every two days, a test was conducted of the motor capacities of the mice from P5 to P9. The inventors evaluated the spontaneous displacement capacities by the open-field test, as well as the muscular fatigability by grip test, such as described hereinabove (Biondi et al., 2008; Branchu et al., 2013; Chali et al., 2016). The device used for the open-field test is different according to the age of the mice. For animals from P0 to P6, it is formed of a 15×15×5 cm plastic box with a grid pattern of the field divided into 25 3 cm×3 cm squares. For animals from P7 to P21, it is formed of a 28×28×5 cm plastic box with a grid pattern of the field divided into 16 7 cm×7 cm squares. The mice were tested individually and the evaluation device was washed after each session. Each mouse initially placed at the center of the field was able to move about freely for 5 minutes. The behavioral measurements are recorded by the experimenter during these 5 minutes and the total number of squares crossed was recorded.

For the compound `CC(C)(O)CC[C@@H](O)[C@](C)(O)[C@H]1CC[C@@]2(O)C3=CC(=O)[C@@H]4C[C@@H](O)[C@@H](O)C[C@]4(C)[C@H]3CC[C@]12C` [BIO101, 20-hydroxyecdysone], the “number of squares crossed (open-field test)” value is, setting by setting: (P5, SMA mice (vehicle 10)) 11 squares; (P7, SMA mice (vehicle 6), p<0.05) 10 squares; (P9, SMA mice (vehicle 8), p=ns) 11 squares.

For the origin of these results see patent US12440500B2, “Phytoecdysones and the derivatives thereof for use in the treatment of neuromuscular diseases” (BIOPHYTIS, priority 2019, dated 2025).
